Test results reported in paper PMC11062922 (Nature Chemical Biology, 2023).

How the values were obtained:
ABL2 = target: T1, ABL2 (Homo sapiens, UniProt P42684); assay: Kinobeads two-dose competition binding: ABL2; settings: sheet CATDS matrix 2; Gene Name ABL2
T1 construct: endogenous in cells

AAK1 = target: T2, AAK1 (Homo sapiens, UniProt Q2M2I8); assay: Kinobeads two-dose competition binding: AAK1; settings: for CATDS: sheet CATDS matrix 2, Gene Name AAK1; for potency estimated from few doses: sheet "Kinobeads Drugmatrix - all", unit inferred, same values below 1000 recur in sheet "nanomolar", read-out: Kinobeads Drugmatrix - all: apparent Kd, AAK1;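 on all read-outs here: kinobeads competition pulldown from cell lysate, compound preincubated 45 min at 4 °C, bead-bound protein measured by label-free mass spectrometry against DMSO vehicle control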
T2 construct: to maximize the representation of endogenous proteins; endogenous in cells

ACAD11 = target: T3, ACAD11 (Homo sapiens, UniProt Q709F0); assay: Kinobeads two-dose competition binding: ACAD11; settings: sheet CATDS matrix 2; Gene Name ACAD11
T3 construct: endogenous in cells
T3 sequence (Q709F0 1-780): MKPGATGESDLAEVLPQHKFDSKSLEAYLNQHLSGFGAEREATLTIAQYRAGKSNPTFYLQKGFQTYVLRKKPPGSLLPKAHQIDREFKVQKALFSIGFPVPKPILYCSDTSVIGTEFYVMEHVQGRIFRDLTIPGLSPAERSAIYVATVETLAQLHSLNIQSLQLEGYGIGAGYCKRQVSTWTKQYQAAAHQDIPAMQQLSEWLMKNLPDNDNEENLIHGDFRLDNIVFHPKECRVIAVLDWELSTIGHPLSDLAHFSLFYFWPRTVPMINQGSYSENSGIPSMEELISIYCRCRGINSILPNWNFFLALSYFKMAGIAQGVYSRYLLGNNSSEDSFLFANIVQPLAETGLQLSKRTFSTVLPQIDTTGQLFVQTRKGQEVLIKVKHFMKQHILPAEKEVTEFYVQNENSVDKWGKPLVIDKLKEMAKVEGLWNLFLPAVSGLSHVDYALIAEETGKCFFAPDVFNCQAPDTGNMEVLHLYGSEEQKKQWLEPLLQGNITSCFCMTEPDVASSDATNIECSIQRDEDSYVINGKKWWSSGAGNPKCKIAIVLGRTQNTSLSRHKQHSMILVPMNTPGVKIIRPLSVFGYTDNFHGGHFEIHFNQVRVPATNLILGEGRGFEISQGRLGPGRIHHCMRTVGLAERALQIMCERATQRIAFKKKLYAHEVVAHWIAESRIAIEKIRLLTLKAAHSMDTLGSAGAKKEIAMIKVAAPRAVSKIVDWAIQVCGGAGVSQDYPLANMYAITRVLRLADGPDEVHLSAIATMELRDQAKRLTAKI

ACOX1 = target: T4, ACOX1 (Homo sapiens, UniProt Q15067); assay: Kinobeads two-dose competition binding: ACOX1; settings: sheet CATDS matrix 2; Gene Name ACOX1;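 further: competition of compounds with immobilized broad-spectrum kinase inhibitor beads in cell lysate at 100 and 1,000 nM, 45 min at 4 °C, bead-bound protein quantified by label-free MS versus DMSO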
T4 construct: endogenous in cells
T4 sequence (Q15067 1-660): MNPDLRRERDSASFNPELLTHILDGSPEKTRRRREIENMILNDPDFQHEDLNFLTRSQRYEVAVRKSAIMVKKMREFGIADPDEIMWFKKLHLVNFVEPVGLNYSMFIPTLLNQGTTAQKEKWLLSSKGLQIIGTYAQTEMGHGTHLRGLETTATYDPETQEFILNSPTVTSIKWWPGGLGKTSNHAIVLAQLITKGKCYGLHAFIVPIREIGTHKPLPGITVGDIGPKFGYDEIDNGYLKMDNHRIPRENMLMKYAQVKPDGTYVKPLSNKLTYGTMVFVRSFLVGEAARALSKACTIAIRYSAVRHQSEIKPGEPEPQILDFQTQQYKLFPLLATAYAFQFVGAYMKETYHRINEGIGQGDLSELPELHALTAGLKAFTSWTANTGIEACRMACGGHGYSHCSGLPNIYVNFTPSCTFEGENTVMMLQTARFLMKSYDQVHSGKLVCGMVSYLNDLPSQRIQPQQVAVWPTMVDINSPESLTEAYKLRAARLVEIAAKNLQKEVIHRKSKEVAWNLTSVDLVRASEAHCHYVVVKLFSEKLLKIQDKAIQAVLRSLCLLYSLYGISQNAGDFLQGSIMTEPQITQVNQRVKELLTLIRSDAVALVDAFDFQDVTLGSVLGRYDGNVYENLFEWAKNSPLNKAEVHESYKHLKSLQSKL

ABL1 = ABL1 (Homo sapiens, UniProt P00519); assay: Kinobeads two-dose competition binding: ABL1; settings: sheet CATDS matrix 2; Gene Name ABL1
ABL1, sequence (P00519 28-1130 limits assumed): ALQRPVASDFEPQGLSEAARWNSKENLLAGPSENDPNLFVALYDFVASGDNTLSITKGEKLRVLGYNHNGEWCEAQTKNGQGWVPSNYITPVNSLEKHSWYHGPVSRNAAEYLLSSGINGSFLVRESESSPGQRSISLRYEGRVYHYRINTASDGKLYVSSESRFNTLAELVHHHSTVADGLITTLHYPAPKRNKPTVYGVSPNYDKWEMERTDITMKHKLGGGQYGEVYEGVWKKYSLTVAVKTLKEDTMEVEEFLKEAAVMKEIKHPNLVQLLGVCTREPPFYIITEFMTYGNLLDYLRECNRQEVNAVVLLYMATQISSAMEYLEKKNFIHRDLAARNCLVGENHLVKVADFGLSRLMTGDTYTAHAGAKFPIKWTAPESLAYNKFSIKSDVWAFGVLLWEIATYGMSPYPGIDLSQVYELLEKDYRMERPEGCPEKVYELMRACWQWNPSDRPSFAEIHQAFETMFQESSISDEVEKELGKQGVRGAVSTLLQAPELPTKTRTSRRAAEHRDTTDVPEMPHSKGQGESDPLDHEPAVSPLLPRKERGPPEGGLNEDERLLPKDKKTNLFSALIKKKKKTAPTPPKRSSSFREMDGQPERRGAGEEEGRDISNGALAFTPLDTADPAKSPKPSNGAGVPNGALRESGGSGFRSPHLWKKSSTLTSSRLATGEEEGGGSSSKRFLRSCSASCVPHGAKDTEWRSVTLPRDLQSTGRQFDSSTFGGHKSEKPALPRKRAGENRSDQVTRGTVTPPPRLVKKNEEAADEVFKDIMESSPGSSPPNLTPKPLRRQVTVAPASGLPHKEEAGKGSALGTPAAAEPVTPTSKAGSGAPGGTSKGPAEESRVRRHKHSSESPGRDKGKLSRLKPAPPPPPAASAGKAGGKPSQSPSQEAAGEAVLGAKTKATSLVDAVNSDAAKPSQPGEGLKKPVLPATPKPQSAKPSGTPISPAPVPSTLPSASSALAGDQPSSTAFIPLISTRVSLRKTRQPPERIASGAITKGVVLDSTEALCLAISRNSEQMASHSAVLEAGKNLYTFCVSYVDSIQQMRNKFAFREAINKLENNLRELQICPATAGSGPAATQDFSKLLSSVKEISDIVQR

T1 sequence (P42684 whole entry): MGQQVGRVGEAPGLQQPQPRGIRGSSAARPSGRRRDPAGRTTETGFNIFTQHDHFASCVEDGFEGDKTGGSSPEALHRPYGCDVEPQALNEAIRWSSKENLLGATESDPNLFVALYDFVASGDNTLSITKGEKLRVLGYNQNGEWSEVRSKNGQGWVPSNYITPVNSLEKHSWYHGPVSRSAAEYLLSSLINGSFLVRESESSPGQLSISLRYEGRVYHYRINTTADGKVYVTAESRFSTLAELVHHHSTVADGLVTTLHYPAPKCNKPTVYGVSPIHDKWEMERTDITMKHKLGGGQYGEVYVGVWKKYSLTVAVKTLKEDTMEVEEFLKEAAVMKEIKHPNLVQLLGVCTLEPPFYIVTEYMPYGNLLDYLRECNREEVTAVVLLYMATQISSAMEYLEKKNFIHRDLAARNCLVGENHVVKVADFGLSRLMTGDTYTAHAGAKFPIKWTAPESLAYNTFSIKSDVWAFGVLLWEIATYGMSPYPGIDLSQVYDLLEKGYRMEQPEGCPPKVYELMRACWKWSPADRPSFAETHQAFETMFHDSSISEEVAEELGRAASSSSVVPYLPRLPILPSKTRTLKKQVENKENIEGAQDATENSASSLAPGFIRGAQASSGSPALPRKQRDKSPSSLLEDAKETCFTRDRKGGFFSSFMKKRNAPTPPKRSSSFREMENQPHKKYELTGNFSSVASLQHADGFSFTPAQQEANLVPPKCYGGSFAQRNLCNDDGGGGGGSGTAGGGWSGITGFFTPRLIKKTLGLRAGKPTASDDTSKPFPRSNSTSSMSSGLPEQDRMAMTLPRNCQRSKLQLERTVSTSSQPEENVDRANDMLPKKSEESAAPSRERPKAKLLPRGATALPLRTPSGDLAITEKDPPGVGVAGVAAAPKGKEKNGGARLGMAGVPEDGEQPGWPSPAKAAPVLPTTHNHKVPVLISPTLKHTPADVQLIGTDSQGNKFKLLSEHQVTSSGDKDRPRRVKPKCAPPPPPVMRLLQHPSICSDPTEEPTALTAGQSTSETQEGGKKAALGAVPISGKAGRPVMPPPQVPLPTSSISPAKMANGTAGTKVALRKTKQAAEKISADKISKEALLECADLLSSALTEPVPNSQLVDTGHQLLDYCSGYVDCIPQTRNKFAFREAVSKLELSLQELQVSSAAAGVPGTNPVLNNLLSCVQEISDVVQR
T2 sequence (Q2M2I8 whole entry): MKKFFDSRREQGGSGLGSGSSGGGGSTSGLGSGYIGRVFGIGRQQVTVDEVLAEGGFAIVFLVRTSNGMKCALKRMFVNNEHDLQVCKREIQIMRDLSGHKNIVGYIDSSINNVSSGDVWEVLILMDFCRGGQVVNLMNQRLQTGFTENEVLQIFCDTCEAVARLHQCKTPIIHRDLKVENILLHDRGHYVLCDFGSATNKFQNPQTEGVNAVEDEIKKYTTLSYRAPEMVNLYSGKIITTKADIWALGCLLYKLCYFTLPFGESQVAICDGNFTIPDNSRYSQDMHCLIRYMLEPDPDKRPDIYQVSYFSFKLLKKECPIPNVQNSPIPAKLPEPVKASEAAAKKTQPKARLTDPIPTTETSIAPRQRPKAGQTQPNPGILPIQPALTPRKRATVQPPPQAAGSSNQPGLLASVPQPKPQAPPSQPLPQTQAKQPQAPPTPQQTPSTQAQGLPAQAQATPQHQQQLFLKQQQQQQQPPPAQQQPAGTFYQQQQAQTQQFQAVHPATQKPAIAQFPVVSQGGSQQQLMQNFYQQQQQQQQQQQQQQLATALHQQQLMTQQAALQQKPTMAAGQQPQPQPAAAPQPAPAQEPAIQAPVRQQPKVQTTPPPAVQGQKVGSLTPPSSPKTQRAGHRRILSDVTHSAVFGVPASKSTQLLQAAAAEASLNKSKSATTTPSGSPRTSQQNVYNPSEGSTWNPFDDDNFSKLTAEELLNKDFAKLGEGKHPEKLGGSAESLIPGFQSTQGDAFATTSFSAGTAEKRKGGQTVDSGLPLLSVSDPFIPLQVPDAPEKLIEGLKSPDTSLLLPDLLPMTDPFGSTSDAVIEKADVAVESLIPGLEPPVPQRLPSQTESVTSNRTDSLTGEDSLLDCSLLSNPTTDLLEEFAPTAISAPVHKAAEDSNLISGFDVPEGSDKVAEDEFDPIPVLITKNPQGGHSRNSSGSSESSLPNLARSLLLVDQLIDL

Structure (SMILES) | CATDS (ABL2) | CATDS (AAK1) | CATDS (ACAD11) | CATDS (ACOX1) | CATDS (ABL1) | potency estimated from few doses (AAK1) [nM]
CNC(=O)c1ccccc1Sc1ccc2c(/C=C/c3ccccn3)n[nH]c2c1 [Axitinib, reference compound] | 0 | 0 | 0 | 0 | – | –
COc1cc2c(cc1OC)C(=C(Nc1ccccc1)c1cccc(CN)c1)C(=O)N2 [BIBF0846CL] | 0 | 0 | 0 | 0 | 0 | –
COc1cc2ncnc(Nc3ccc(F)c(Cl)c3)c2cc1O[C@H]1CC[C@H](N)CC1 [BIBW3133BS] | 0 | 0 | 0 | 0 | 0 | –
Cc1ccc(-n2nc(C(C)(C)C)cc2NC(=O)Nc2ccc(OCCN3CCOCC3)cc2)cc1 [BIRB0876BS] | 0 | 0 | 0 | 0 | 0 | –
NCC1CCC(CNc2nc(NCc3ccccc3OC(F)(F)F)ncc2[N+](=O)[O-])CC1 (centres unmarked) [BIRZ0518XX] | 0 | 0 | 0 | 0 | 0 | –
C=CC(=O)Nc1cc(-n2c(=O)ccc3cnc4ccc(-c5ccc(NS(C)(=O)=O)cc5)cc4c32)ccc1C [BMX-IN-1] | 0 | 0 | 0 | 0 | 0 | –
CCS(=O)(=O)N1CC(CC#N)(n2cc(-c3ncnc4[nH]ccc34)cn2)C1 [Baricitinib, reference compound] | 0 | 0.1267 | 0 | 0 | 0 | –
Cn1cnc2c(F)c(Nc3ccc(Br)cc3F)c(C(=O)NOCCO)cc21 [Binimetinib, reference compound] | 0 | 0 | 0 | 0 | 0 | –
COc1cc(Nc2c(C#N)cnc3cc(OCCCN4CCN(C)CC4)c(OC)cc23)c(Cl)cc1Cl [Bosutinib, reference compound] | – | – | 0 | 0 | – | –
COc1cc(N2CCC(N3CCN(C)CC3)CC2)ccc1Nc1ncc(Cl)c(Nc2ccccc2P(C)(C)=O)n1 [Brigatinib, reference compound] | 0 | 0.01731 | 0 | 0 | 0 | –
C[C@@H](Oc1cc(-c2cnn(C3CCNCC3)c2)cnc1N)c1c(Cl)ccc(F)c1Cl [Crizotinib, reference compound] | 0.04718 | 0 | 0 | 0 | – | –
CC(C)(C)c1nc(-c2cccc(NS(=O)(=O)c3c(F)cccc3F)c2F)c(-c2ccnc(N)n2)s1 [Dabrafenib, reference compound] | 0.02813 | 0 | 0 | 0 | – | –
CO[C@@H](C(=O)N1Cc2n[nH]c(NC(=O)c3ccc(N4CCN(C)CC4)cc3)c2C1)c1ccccc1 [Danusertib, reference compound] | 0.05811 | 0 | 0 | 0 | – | –
Cc1nc(Nc2ncc(C(=O)Nc3c(C)cccc3Cl)s2)cc(N2CCN(CCO)CC2)n1 [Dasatinib, reference compound] | 0.1826 | 0 | 0 | 0 | – | –
C#Cc1cccc(Nc2ncnc3cc(OCCOC)c(OCCOC)cc23)c1 [Erlotinib, reference compound] | – | 0 | – | – | 0 | –
COc1cc2ncnc(Nc3cccc(Br)c3)c2cc1OC [GI230329A] | 0 | 0 | 0 | 0 | – | –
COc1ccc(CNC(=O)NC2CCN(c3ccnc(Nc4cc(OC)c(OC)c(OC)c4)n3)C2)cc1 (centres unmarked) [GSK1379748A] | – | – | – | – | – | > 1000
COc1cccc(NC(=O)NC2CCN(c3ccnc(Nc4cc(OC)c(OC)c(OC)c4)n3)C2)c1 (centres unmarked) [GSK1379763A] | – | – | – | – | – | > 1000
O=c1[nH]ccc2nc(N[C@@H]3CCCNC3)nc(Nc3ccc(S(=O)(=O)N4CCOCC4)cc3)c12 [GSK2177277A] | 0 | 0.01814 | – | 0 | 0 | 64.1
COc1cc2ncnc(Nc3ccc(F)c(Cl)c3)c2cc1OCCCN1CCOCC1 [Gefitinib, reference compound] | – | 0 | – | – | – | –

The remaining lines, values ahead:

CATDS (ABL2) | CATDS (AAK1) | CATDS (ACAD11) | CATDS (ACOX1) | CATDS (ABL1) | potency estimated from few doses (AAK1) [nM] | Structure (SMILES)
0 | 0.0448 | 0 | 0 | – | – | O=C(Nc1c[nH]nc1-c1nc2ccc(CN3CCOCC3)cc2[nH]1)NC1CC1 [AT-9283, reference compound]
0 | 0 | 0 | 0 | 0 | – | CCC(NN(C)C)=C1C(=O)Nc2ccc(C(C)=O)cc21 [BI00036838]
0 | 0 | 0 | 0 | 0 | – | CC(C)C(=O)N[C@@H]1CCN(C(=O)Nc2nc3c(s2)-c2nc(-c4ccccc4Cl)ncc2CC3)C1 [BI00047804]
0 | 0 | 0 | 0 | 0 | – | COc1cc2ncnc(Nc3cccc(Cl)c3F)c2cc1O[C@H]1CC[C@@]2(CC1)NCCNC2=O [BI00113608]
0 | 0 | 0 | 0 | 0 | – | COc1cc2ncnc(Nc3cccc(Cl)c3F)c2cc1O[C@H]1CC[C@H]([C@@H]2NCCNC2=O)CC1 [BI00133844]
0 | 0 | 0 | 0 | 0 | – | O=c1[nH]c2cc(Nc3ccc(F)cc3F)ccc2n1CC1CCCCC1 [BI00601000]
0 | 0 | 0 | 0 | 0 | > 1000 | CCCc1cc(N2CCCN(C)CC2)nc2sc3c(N)ncnc3c12 [BI00604564]
0 | 0 | 0 | 0 | 0 | – | NCC1CNC(=O)c2cc3ccc(C(=O)Nc4cccnc4)cc3n2C1 (centres unmarked) [BI00614644]
0 | 0 | 0 | 0 | 0 | – | C[C@@H]1CCNC(=O)c2cc3ccc(C(=O)Nc4nc5ccccc5n4CCCN(C)C)cc3n21 [BI00645435]
0 | 0 | 0 | 0 | 0 | – | CCCNC(=O)c1ccc(Nc2ncc(C(F)(F)F)c(Nc3ccccc3C(C)=O)n2)c(Br)c1 [BI00801818]
0 | 0 | 0 | 0 | 0 | – | CCCS(=O)(=O)Nc1ccc(F)c(-n2cc(-c3cncc(OC)c3)nn2)c1F [BI00865461]
0 | 0 | 0 | 0 | 0 | – | NC(=O)c1cccnc1COc1cc(-c2ccc(N3CCOCC3)nc2)cc2ncccc12 [BI01125081]
0 | 0 | 0 | 0 | – | – | CNc1nc(-c2ccc3c(N)n[nH]c3c2)cc(N2C[C@@H](C(=O)NC3CCCCC3)CC[C@H]2C)n1 [GSK2334470]
